Experimental findings from US8592415B2, “Selective kinase inhibitors” (Reaction Biology Corp., priority 2009, dated 2013) are described below.

What all share (assay type): biochemical
Experiment [1] addresses JAK3 (Homo sapiens (Human), UniProt P52333). Description: In vitro JAK kinase enzymatic assay (JAK3). The protocol: (§1) The JAK3 kinase is recombinant human protein (catalytic domain, amino acids 781-1124 with GST-tag), expressed in insect cells (Invitrogen Catalog PV3855). The substrate is poly-glutamic acid-tyrosin peptide, Poly-(GT) (4:1) (Sigma-Aldrich, catalog P7244). [γ-^33P]-ATP is purchased from Perkin Elmer (catalog NEG602H001MC) (EasyTides). Kinase reaction buffer is 100 mM HEPES (pH 7.5), 20 mM MgCl2, 2 mM EGTA, 0.02% Brij 35. The JAK1 (Invitrogen Catalog PV4774), JAK2 (Invitrogen Catalog PV4210) and TYK2 Invitrogen Catalog PV4790) enzymatic assays are performed in the similar way. JAK1 and JAK2 substrate is Poly-(GT) (4:1), but TYK2 substrate is peptide with sequences of […]. The reaction is carried for 2 hours at room temperature. After the reactions are finished or stopped, portion or all the reaction mixtures are transferred onto filter paper P81 Phosphocellulose paper (Whatman catalog 3698-915) for binding the final radioisotope labeled products. The unreacted phosphate are washed away without interfering with the detection of real phosphorylated products. The final product can be detected by instruments such as scintillation counter, top counter or phosphoimager. The enzymatic assays can also performed in assays described those described in the art [e.g., Ma H et al, Expert Opin. Drug Discov. 3, 607-621 (2008); Olive D M, Expert Rev Proteomics, 1, 327-341 (2004)].
(§2) Signal=Bottom+(Top−Bottom)/(1+10^((Log(IC50)−Log [I])*Hill Slope) Bottom and Top refer to the post and pre-transition baselines, respectively.

In experiment [2] the target is JAK2. Description: In vitro JAK kinase enzymatic assay (JAK2). The protocol: as §1, with “The” for “The JAK3 kinase is recombinant human protein (catalytic domain, amino acids 781-1124 with GST-tag), expressed in insect cells (Invitrogen Catalog PV3855). The”, “After the reactions are finished or stopped, portion or all the reaction mixtures are transferred onto filter paper P81 Phosphocellulose paper (Whatman catalog 3698-915) for binding the final radioisotope labeled products.” left out, “Discov.” for “Discov. 3, 607-621 (2008); Olive D M, Expert Rev Proteomics, 1, 327-341 (2004)].”
as §2

The target of experiment [3] is JAK1 (Homo sapiens, UniProt P23458). Description: In vitro JAK kinase enzymatic assay (JAK1). On the procedure:
as §1, §2

The target of experiment [4] is TYK2 (Homo sapiens (Human), UniProt P29597). Description: In vitro JAK kinase enzymatic assay (TYK2). The protocol:
as §1, §2

Experiment [5] has as its target JAK2 (Homo sapiens, UniProt O60674). Description: In vitro JAK kinase enzymatic assay (JAK2). The protocol:
as §1, with “The” for “The JAK3 kinase is recombinant human protein (catalytic domain, amino acids 781-1124 with GST-tag), expressed in insect cells (Invitrogen Catalog PV3855). The”, “After the reactions are finished or stopped, portion or all the reaction mixtures are transferred onto filter paper P81 Phosphocellulose paper (Whatman catalog 3698-915) for binding the final radioisotope labeled products.” left out, “Discov.” for “Discov. 3, 607-621 (2008); Olive D M, Expert Rev Proteomics, 1, 327-341 (2004)].”
as §2

JAK3, sequence (P52333 781-1124): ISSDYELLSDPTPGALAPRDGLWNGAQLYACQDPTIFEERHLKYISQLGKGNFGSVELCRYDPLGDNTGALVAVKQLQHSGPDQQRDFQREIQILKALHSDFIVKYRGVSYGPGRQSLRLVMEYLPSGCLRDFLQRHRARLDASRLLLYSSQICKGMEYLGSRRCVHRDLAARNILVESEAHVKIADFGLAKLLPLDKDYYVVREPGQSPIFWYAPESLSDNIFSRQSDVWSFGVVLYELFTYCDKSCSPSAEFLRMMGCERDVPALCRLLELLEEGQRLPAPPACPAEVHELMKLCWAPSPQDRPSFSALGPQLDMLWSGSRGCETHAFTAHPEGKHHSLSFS
TYK2, sequence (P29597 whole entry): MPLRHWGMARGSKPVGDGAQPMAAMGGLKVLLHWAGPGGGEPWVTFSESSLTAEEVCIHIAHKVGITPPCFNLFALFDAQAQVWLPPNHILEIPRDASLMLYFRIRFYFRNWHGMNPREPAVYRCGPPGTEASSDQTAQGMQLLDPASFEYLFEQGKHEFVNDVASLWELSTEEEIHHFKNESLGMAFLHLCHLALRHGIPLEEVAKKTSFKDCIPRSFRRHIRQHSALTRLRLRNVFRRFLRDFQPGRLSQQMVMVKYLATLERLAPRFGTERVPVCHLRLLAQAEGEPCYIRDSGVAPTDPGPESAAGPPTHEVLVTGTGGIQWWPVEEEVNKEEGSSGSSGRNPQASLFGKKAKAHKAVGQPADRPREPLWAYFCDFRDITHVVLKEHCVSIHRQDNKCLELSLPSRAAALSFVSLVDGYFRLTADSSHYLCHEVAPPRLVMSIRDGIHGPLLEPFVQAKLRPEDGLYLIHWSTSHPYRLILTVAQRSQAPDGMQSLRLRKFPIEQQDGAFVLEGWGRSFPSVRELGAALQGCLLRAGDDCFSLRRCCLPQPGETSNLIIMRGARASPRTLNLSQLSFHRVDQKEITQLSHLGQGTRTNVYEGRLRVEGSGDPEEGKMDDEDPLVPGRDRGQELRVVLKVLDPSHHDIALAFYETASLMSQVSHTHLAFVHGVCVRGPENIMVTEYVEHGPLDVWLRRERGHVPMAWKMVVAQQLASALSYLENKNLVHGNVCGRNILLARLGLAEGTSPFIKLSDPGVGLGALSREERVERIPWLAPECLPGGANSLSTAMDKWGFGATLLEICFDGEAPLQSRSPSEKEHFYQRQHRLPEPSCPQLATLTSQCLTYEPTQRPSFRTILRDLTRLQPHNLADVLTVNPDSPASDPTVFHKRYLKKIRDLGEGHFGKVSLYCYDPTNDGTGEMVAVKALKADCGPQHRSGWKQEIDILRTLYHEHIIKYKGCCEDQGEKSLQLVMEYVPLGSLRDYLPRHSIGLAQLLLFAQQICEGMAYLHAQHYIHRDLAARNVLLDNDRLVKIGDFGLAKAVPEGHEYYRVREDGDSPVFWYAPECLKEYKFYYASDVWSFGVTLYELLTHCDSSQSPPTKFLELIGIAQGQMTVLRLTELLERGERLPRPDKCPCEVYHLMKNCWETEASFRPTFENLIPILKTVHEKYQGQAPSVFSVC
JAK2 (Homo sapiens, UniProt O60674), sequence (O60674 whole entry, looked up, the tested form may be a part): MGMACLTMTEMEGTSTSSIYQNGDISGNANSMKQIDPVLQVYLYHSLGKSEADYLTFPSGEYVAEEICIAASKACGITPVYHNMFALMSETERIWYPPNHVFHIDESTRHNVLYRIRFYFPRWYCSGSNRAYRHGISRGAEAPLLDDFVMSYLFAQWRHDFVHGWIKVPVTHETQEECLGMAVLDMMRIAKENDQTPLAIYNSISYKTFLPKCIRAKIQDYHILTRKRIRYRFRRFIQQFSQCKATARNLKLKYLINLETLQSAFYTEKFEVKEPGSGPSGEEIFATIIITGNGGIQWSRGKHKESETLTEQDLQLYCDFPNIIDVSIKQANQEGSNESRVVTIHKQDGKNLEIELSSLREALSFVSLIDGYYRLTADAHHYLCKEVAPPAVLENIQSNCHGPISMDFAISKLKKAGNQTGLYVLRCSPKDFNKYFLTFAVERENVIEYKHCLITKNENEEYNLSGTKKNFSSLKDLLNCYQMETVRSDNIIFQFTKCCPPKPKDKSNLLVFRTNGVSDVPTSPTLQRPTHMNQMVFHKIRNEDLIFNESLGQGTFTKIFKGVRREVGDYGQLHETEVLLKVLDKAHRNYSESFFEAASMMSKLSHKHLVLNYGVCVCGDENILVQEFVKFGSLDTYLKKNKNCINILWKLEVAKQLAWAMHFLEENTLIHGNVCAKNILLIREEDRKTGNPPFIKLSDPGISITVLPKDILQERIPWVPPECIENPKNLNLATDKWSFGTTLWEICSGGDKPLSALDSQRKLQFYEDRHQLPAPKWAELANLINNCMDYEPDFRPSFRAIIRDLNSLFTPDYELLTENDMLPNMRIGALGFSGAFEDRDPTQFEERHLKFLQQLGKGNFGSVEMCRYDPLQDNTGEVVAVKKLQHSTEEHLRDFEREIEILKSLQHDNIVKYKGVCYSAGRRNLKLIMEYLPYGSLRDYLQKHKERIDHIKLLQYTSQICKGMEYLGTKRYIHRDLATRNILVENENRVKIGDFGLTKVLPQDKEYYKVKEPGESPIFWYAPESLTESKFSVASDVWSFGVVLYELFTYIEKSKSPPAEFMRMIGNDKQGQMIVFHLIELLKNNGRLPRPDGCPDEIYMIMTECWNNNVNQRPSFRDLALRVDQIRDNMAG

In general, IC50 refers to the concentration needed to halve the response being measured. Read a low IC50 as inhibition by little substance. As for `O=C(CN1CCNCC1)Nc1cccc(-c2cnc3ccccc3n2)c1` [Example 35, 2-(piperazin-1-yl)-N-(3-(quinoxalin-2-yl)phenyl)acetamide], the half-inhibitory concentration (IC50) was 13 µM in experiment [1], over 20 µM in experiment [2], over 20 µM in experiment [3] and over 20 µM in experiment [4].

On to `C=CCC(=O)Nc1cccc(-c2cnc3ccccc3n2)c1` [Example 23, N-(3-(quinoxalin-2-yl)phenyl)but-3-enamide], for which the concentration for half-maximal inhibition (IC50) in experiment [1], in experiment [2], in experiment [3] and in experiment [4] was over 10 µM throughout.

As for `O=C(CN1CCC(O)CC1)Nc1cccc(-c2cnc3ccccc3n2)c1` [Example 34, 2-(4-hydroxypiperidin-1-yl)-N-(3-(quinoxalin-2-yl)phenyl)acetamide], the IC50 in experiment [1], in experiment [5], in experiment [3] and in experiment [4] was over 10 µM throughout.

Take `CCOC(=O)CC(=O)Nc1cccc(-c2cnc3ccccc3n2)c1` [Example 32, ethyl 3-oxo-3-(3-(quinoxalin-2-yl)phenylamino)propanoate]: the IC50 in experiment [1], in experiment [2], in experiment [3] and in experiment [4] was over 10 µM each time.

As for `NS(=O)(=O)CCC(=O)Nc1cccc(-c2cnc3ccccc3n2)c1` [Example 36, 3-(aminosulfonyl)-N-[3-(2-quinoxalinyl)phenyl]propanamide], the half-maximal inhibitory concentration (IC50) in experiment [1], in experiment [2], in experiment [3] and in experiment [4] was over 10 µM each time.

Take `C=CC(=O)Nc1cccc(-c2cnc3ccccc3n2)c1` [Example 22, N-(3-(quinoxalin-2-yl)phenyl)acrylamide]: the IC50 is 0.045 µM in experiment [1], over 10 µM in experiment [5], over 10 µM in experiment [3] and over 10 µM in experiment [4].

`CS(=O)(=O)OCC(=O)Nc1cccc(-c2cnc3ccccc3n2)c1` [Example 27, 2-oxo-2-(3-(quinoxalin-2-yl)phenylamino)ethyl methanesulfonate]: the half-maximal inhibitory concentration (IC50) in experiment [1] is 0.0006 µM; in experiment [2] it was over 10 µM; in experiment [3], over 10 µM; in experiment [4], over 10 µM.

For the compound `O=C(CC(=O)C(F)(F)F)Nc1cccc(-c2cnc3ccccc3n2)c1` [Example 26, 4,4,4-trifluoro-3-oxo-N-(3-(quinoxalin-2-yl)phenyl)butanamide], the IC50 in experiment [1], in experiment [2], in experiment [3] and in experiment [4] was over 10 µM each time.

For `O=C(Nc1cccc(-c2cnc3ccccc3n2)c1)c1ccco1` [Example 12, N-[3-(quinoxalin-2-yl)phenyl]furan-2-carboxamide], the half-inhibitory concentration (IC50) in experiment [1] is over 50 µM; in experiment [2] it was 24.6 µM; in experiment [3] it was over 50 µM; in experiment [4], over 50 µM.

On to `CS(=O)(=O)Nc1cccc(-c2cnc3ccccc3n2)c1` [Example 15, N-[3-(quinoxalin-2-yl)phenyl]methanesulfonamide], for which the IC50 in experiment [1] is over 50 µM; in experiment [2] it was 18.5 µM; in experiment [3], over 50 µM; in experiment [4], over 50 µM.

As for `CC(=O)OCC(=O)Nc1cccc(-c2cnc3ccccc3n2)c1` [Example 28, 2-oxo-2-(3-(quinoxalin-2-yl)phenylamino)ethyl acetate], the IC50 is 150 µM in experiment [1], over 10 µM in experiment [2], over 10 µM in experiment [3] and over 10 µM in experiment [4].

Take `CC(Nc1cccc(-c2cnc3ccccc3n2)c1)=C1CCOC1=O` (racemic) [Example 31, (E/Z)-3-(1-(3-(quinoxalin-2-yl)phenylamino)ethylidene)dihydrofuran-2(3H)-one]: the IC50 in experiment [1], in experiment [3] and in experiment [4] was over 10 µM in each case.

Regarding `CCC(=O)Nc1cccc(-c2cnc3ccccc3n2)c1` [Example 6, N-[3-(quinoxalin-2-yl)phenyl]propionamide], the IC50 in experiment [1], in experiment [5], in experiment [3] and in experiment [4] was over 50 µM each time.

“N-[3-(quinoxalin-2-yl)phenyl]cyclopropanecarboxamide [Example 14]”: the IC50 in experiment [1], in experiment [3] and in experiment [4] was over 50 µM throughout.

Regarding `O=C(Cn1cncn1)Nc1cccc(-c2cnc3ccccc3n2)c1` [Example 7, N-[3-(quinoxalin-2-yl)phenyl]-2-(1H-1,2,4-triazol-1-yl)acetamide], the half-inhibitory concentration (IC50) in experiment [1], in experiment [2], in experiment [3] and in experiment [4] was over 50 µM throughout.

With `O=C(CN1CCN(c2ccncc2)CC1)Nc1cccc(-c2cnc3ccccc3n2)c1` [Example 33, 2-(4-(pyridin-4-yl)piperazin-1-yl)-N-(3-(quinoxalin-2-yl)phenyl)acetamide], the IC50 in experiment [1], in experiment [2], in experiment [3] and in experiment [4] was over 10 µM throughout.

`CN1CCN(CC(=O)Nc2cccc(-c3cnc4ccccc4n3)c2)CC1` [Example 17, 2-(4-methylpiperazin-1-yl)-N-[3-(quinoxalin-2-yl)phenyl]acetamide]: the half-inhibitory concentration (IC50) in experiment [1], in experiment [2], in experiment [3] and in experiment [4] was over 50 µM each time.

As for `O=C(CN1CCCC1)Nc1cccc(-c2cnc3ccccc3n2)c1` [Example 3, 2-pyrrolidin-1-yl-N-(3-quinoxalin-2-ylphenyl)acetamide], the concentration for half-maximal inhibition (IC50) in experiment [1], in experiment [2], in experiment [3] and in experiment [4] was over 20 µM in each case.

Take `COc1ccc(NC(=O)Nc2cccc(-c3cnc4ccccc4n3)c2)cc1` [Example 10, 1-(4-methoxyphenyl)-3-[3-(quinoxalin-2-yl)phenyl]urea]: the IC50 in experiment [1], in experiment [2], in experiment [3] and in experiment [4] was over 50 µM throughout.

Regarding `O=C(CCCCl)Nc1cccc(-c2cnc3ccccc3n2)c1` [Example 5, 4-chloro-N-[3-(quinoxalin-2-yl)phenyl]butanamide], the concentration for half-maximal inhibition (IC50) in experiment [1], in experiment [2], in experiment [3] and in experiment [4] was over 50 µM in each case.

Take “1-methyl-3-[3-(quinoxalin-2-yl)phenyl]thiourea [Example 11]”: the concentration for half-maximal inhibition (IC50) is over 50 µM in experiment [1], 25.5 µM in experiment [5], over 50 µM in experiment [3] and over 50 µM in experiment [4].

For the compound `CSCC(=O)Nc1cccc(-c2cnc3ccccc3n2)c1` [Example 25, 2-(methylthio)-N-(3-(quinoxalin-2-yl)phenyl)acetamide], the half-maximal inhibitory concentration (IC50) in experiment [1], in experiment [2], in experiment [3] and in experiment [4] was over 10 µM each time.

Turning to `CC(=O)SCC(=O)Nc1cccc(-c2cnc3ccccc3n2)c1` [Example 30, S-2-oxo-2-(3-(quinoxalin-2-yl)phenylamino)ethyl ethanethioate], the IC50 in experiment [1], in experiment [2], in experiment [3] and in experiment [4] was over 10 µM each time.

As for `O=C(CO)Nc1cccc(-c2cnc3ccccc3n2)c1` [Example 29, 2-hydroxy-N-(3-(quinoxalin-2-yl)phenyl)acetamide], the IC50 in experiment [1], in experiment [5], in experiment [3] and in experiment [4] was over 10 µM in each case.

In the case of `CN(C)CC(=O)Nc1cccc(-c2cnc3ccccc3n2)c1` [Example 2, N^2,N^2-dimethyl-N^1-(3-quinoxalin-2-ylphenyl)glycinamide], the IC50 in experiment [1], in experiment [2], in experiment [3] and in experiment [4] was over 50 µM in each case.

Take `O=C(CN1CCOCC1)Nc1cccc(-c2cnc3ccccc3n2)c1` [Example 20, 2-morpholino-N-(3-(quinoxalin-2-yl)phenyl)acetamide]: the concentration for half-maximal inhibition (IC50) in experiment [1] was 34 µM; in experiment [2], over 50 µM; in experiment [3], over 50 µM; in experiment [4], over 50 µM.
